# US20220401751A1, “Thalamic Input to Orbitofrontal Cortex Drives Brain-Wide, Frequency-Dependent Inhibition Mediated By GABA and Zona Incerta” (priority 2019, published 2022)
# Structures can show the parent of a compound that is named as a salt.
# Tests used:
# [1] = system: GABAA receptors; assay: Single-unit recordings in contralateral VLO during 10 Hz thalamocortical stimulation before and after micro-infusion of BMI; format: in vivo, Sprague-Dawley rats
# Experimental: It was next hypothesized that decreases in cortical activity reflect direct GABA-mediated inhibition. The dependence of this response on downstream GABA release was tested by comparing evoked changes in firing rate before and after micro-infusion of bicuculline methiodide (BMI). […] Single-unit recordings were performed in cVLO, where negative fMRI signals were observed during 10 Hz thalamocortical stimulation (FIG. 5A). To ensure that any changes associated with BMI infusion were due to its pharmacological effect, infusions with sterile saline were first performed. To inject both BMI and saline, a pair of cannulas was attached to the recording electrode directly above the electrical contacts (FIG. 5B).
# (§1) In vivo electrophysiology was performed to directly measure the neuronal activity of various brain regions during thalamocortical stimulation. As with imaging, anesthesia was maintained with a mixture of 02 (35%), N20 (65%), and −1.5% isoflurane. Throughout the procedure, body temperature was maintained at 37° C. using a thermoresistive heating pad (FHC, Inc., ME, USA). After securing the animal within a stereotactic frame, a 16-channel microelectrode array (NeuroNexus Technologies, MI, USA; A1×16 standard model linear electrode array) was inserted at the desired recording site. For recordings at the site of stimulation and zona incerta, an optical fiber glued to the electrode tip was used to deliver light. Remote recordings were performed at the following coordinates, averaged across animals: contralateral VLO (+4.68 mm AP, −1.90 mm ML, −4.90 mm DV), ipsilateral motor cortex (+3.24 mm AP, +2.43 mm ML, −3.00 mm DV), ipsilateral reticular nucleus (−1.86 mm AP, +2.20 mm ML, −6.93 mm DV), contralateral reticular nucleus (−1.92 mm AP, −2.10 mm ML, −7.17 mm DV), and ipsilateral zona incerta (−4.00 mm AP, +3.10 mm ML, −7.13 mm DV). Light was delivered to the fiber-optic implant at VLO via a 473 nm laser source calibrated to 5 mW power delivery. In one animal, a higher power level was used (no more than −2×) to account for a fiber implanted in a relatively dorsal position in VLO. For the optrode positioned in zona incerta, a […] diameter optical fiber was used to deliver continuous light from a 589 nm laser source (LaserGlow Technologies) calibrated to 5 mW at the implanted fiber's tip. Recordings were performed for 20 s without stimulation, followed by repeated stimulation cycles (20 s on, 40 s off) at 10 or 40 Hz with a 30% duty cycle. To assess the role of zona incerta, 10 Hz stimulation trials were interleaved with 30 s periods of simultaneous eNpHR activation beginning 5 s prior to 10 Hz stimulation (FIG. 7B).
# (§2) Pharmacological infusions were performed during in vivo electrophysiology (same procedure as described above) with bicuculline methiodide (BMI; 0.6 mg/ml; Sigma-Aldrich #14343), lidocaine hydrochloride (2%; Fresenius Kabi, IL, USA; #491507), or sterile saline as a control. Solutions were delivered at a rate of 250 nL/min via two polyethylene cannulas (0.011/0.024″ ID/OD; A-M Systems, WA, USA)—one for saline and one for the active pharmacological agent—glued to the tip of a recording electrode, directly above the topmost recording contact. Cannula tips were beveled to ensure that injected solutions were released in the direction of the electrode.
# (§3) Infusions of saline and BMI (500 nL) were performed in the contralateral VLO while recording directly below the site of infusion (FIG. 5B). For each solution, twenty 10 Hz stimulation/recording trials were performed before infusion onset, and twenty more trials were performed immediately after infusion. Saline was delivered first, followed by BMI. To assess the role of zona incerta, saline and lidocaine (500-1000 nL) were delivered to the ipsilateral zona incerta while recording in the contralateral VLO. […]
# [2] = system: zona incerta; assay: Single-unit recordings in contralateral VLO during 10 Hz thalamocortical stimulation after lidocaine infusion in zona incerta; format: in vivo, Sprague-Dawley rats
# Experimental: ZI activity was first inactivated via incertal infusions of the sodium channel blocker lidocaine hydrochloride (FIG. 6A and FIGS. 14A-14B). […] In contrast, only 72% of units were inhibited during 10 Hz stimulation after inactivation of zona incerta with lidocaine (FIG. 6B).
# as §1, §2, §3
# [3] = cVLO baseline (pre-stimulation) firing rate
SMILES,"stimulus-evoked change in firing rate of a representative cVLO unit ([1]; 10 Hz stimulation after BMI infusion, p=0.63)","effect on stimulus-evoked inhibition in cVLO ([1]; 10 Hz thalamocortical stimulation, after BMI infusion)","time course of the reduction in stimulus-evoked inhibition ([1]; after BMI infusion, twenty 10 Hz trials)","units whose baseline firing rate decreased following BMI infusion [1, 3] [%]","units whose baseline firing rate increased following BMI infusion [1, 3] [%]","recorded units not modulated by stimulation after BMI infusion ([1]; cVLO units, 10 Hz thalamocortical stimulation, after 500 nL BMI (0.6 mg/ml) infusion in cVLO, 49 units, 2 animals, 20 trials per condition) [%]","recorded units exhibiting a significant increase in firing rate during stimulation after BMI infusion ([1]; cVLO units, 10 Hz thalamocortical stimulation, after BMI infusion) [%]","average baseline firing rate across all units after BMI infusion ([1]; cVLO, p=0.66)","stimulus-evoked change in firing rate of a representative cVLO unit ([2]; 10 Hz stimulation after lidocaine infusion, p=0.31)","time course of the reduction in evoked inhibition ([2]; after lidocaine infusion in zona incerta, twenty 10 Hz trials)","units inhibited during 10 Hz stimulation after inactivation of zona incerta ([2]; cVLO units, lidocaine (2%, 500-1000 nL) infused in ipsilateral zona incerta, N=62 units, 20 trials per condition) [%]","stimulus-evoked changes in firing rate versus baseline and post-saline values ([2]; cVLO, post-hoc tests, p=9.6×10^−10 and 3.0×10^−7)","effect on remote cortical inhibition driven by 10 Hz stimulation in a subset of recorded units ([2]; incertal infusion, representative cVLO unit)"
"C[N+]1(C)CCc2cc3c(cc2[C@H]1[C@@H]1OC(=O)c2c1ccc1c2OCO1)OCO3.[I-] [BMI, bicuculline methiodide]",no longer causes a significant change in firing rate,completely eliminated the stimulus-evoked inhibition,took immediate effect after BMI infusion and continued throughout the following twenty trials,18,27,96,4,not significantly different,,,,,
"CCN(CC)CC(=O)Nc1c(C)cccc1C [lidocaine, lidocaine hydrochloride]",,,,,,,,,no longer exhibits a significant change in firing rate,took immediate effect after lidocaine infusion and persisted throughout the following twenty trials,72,different than both baseline and post-saline values,completely eliminated the remote cortical inhibition
